Source: US5753648A, “Tricyclic benzazepine vasopressin antagonists” (American Cyanamid Company, priority 1996, dated 1998)
Counter-ions that a name gives are not always drawn.

What was measured:
oxytocin receptors = target: T1, oxytocin receptors (Rattus norvegicus, UniProt P70536); assay: Oxytocin Receptor Binding; conditions: for IC50: rat uterine membranes, [3H]oxytocin
T1 sequence (P70536 1-388): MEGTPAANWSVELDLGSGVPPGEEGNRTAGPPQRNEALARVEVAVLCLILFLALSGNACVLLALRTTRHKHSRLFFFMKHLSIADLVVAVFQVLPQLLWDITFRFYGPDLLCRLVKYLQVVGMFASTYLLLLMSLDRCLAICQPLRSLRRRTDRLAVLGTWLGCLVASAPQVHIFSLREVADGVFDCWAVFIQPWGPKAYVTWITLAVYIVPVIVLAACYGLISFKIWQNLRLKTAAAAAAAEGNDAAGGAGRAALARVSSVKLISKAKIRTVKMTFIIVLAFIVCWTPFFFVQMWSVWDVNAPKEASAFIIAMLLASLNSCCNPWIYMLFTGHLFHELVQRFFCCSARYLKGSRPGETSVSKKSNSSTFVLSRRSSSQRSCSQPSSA

[1] = target: T2, Rat Kidney Medullary V2 Receptors (Rattus norvegicus, UniProt Q00788); assay: biochemical; assay type: binding
T2 construct: Medullary tissues from rat kidneys are dissected out; from tissue; host or cells: rat kidney medulla membranes
Method: Binding Assay to Rat Kidney Medullary V2 Receptors
Medullary tissues from rat kidneys are dissected out, cut into small pieces and soaked in a […] sodium chloride solution containing 1.0 mM EDTA with many changes of the liquid phase, until the solution is clear of blood. The tissue is homogenized in a 0.25M sucrose solution containing 1.0 mM EDTA and 0.1 mM PMSF using a Potter-Elvehjem homogenizer with a teflon pestle. The homogenate is filtered through several layers (4 layers) of cheese cloth. The filtrate is rehomogenized using a dounce homogenizer, with a tight fitting pestle. The final homogenate is centrifuged at 1500×g for 15 min. The nuclear pellet is discarded and the supernatant fluid recentrifuged at 40,000×g for 30 min. The resulting pellet formed contains a dark inner part with the exterior, slightly pink. The pink outer part is suspended in a small amount of 50.0 mM Tris.HCl buffer, pH 7.4. The protein content is determined by the Lowry's method (Lowry et al, J. Biol. Chem., 1953). The membrane suspension is stored at -70° C., in 50.0 mM Tris.HCl, containing 0.2% inactivated BSA and 0.1 mM PMSF in aliquots of 1.0 ml containing 10.0 mg protein per ml of suspension until use in subsequent binding experiments.
For binding experiments, the following is added in μl volume to wells of a 96 well format of a microtiter plate: 100.0 μl of 100.0 mM Tris.HCl buffer containing 0.2% heat inactivated BSA, 10.0 mM MgCl2 and a mixture of protease inhibitors: leupeptin, 1.0 mg %; aprotinin, 1.0 mg %; 1,10-phenanthroline, 2.0 mg %; trypsin inhibitor, 10.0 mg % and 0.1 mM PMSF, 20.0 μl of [^3 H] Arginine^8, vasopressin (S.A. 75.0 Ci/mmole) at 0.8 nM and the reaction initiated by the addition of 80.0 μl of tissue membranes (200.0 μg tissue protein). The plates are left undisturbed on the bench top for 120 min. to reach equilibrium. Non-specific binding is assessed in the presence of 1.0 μM of unlabeled ligand, added in 20 μl volume. For test compounds, these are solubilized in 50% dimethylsulfoxide (DMSO) and added in 20.0 μl volume to a final incubation volume of 200 μl. Upon completion of binding, the content of each well is filtered off, using a Brandel® cell Harvester (Gaithersburg, Md.). The radioactivity trapped on the filter disk by the ligand-receptor complex is assessed by liquid scintillation counting in a Packard LS Counter, with an efficiency of 65% for tritium. The data are analyzed for IC50 values by the LUNDON-2 program for competition (LUNDON SOFTWARE, Ohio).

T2 sequence (Q00788 whole entry): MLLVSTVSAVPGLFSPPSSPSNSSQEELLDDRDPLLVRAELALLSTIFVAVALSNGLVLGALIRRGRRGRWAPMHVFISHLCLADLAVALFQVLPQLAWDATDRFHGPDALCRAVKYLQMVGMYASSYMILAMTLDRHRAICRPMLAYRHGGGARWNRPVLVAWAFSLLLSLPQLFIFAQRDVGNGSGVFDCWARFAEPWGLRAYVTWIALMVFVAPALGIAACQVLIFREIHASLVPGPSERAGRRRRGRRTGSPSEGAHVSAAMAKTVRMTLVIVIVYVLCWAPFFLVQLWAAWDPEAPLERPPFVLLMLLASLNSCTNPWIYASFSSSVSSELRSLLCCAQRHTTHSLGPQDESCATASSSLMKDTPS

## O=C(Nc1ccc(C(=O)N2Cc3cccn3Cc3ccccc32)cn1)c1ccc(F)cc1F [Example 7]
Oxytocin receptors; dose 10 μM
  inhibition at 10 µM: 66%
[1]
  inhibition at 10 µM: 58%

## O=C(Nc1ccc(C(=O)N2Cc3cccn3Cc3ccccc32)cn1)c1ccccc1-c1ccccc1 [Example 10]
[1]
  inhibition at 1 µM: 95%

## O=C(Nc1ccc(C(=O)N2Cc3cccn3Cc3ccccc32)cn1)c1cc(Br)ccc1Cl [Example 11]
[1]
  inhibition at 1 µM: 93%

## O=C(Nc1ccc(C(=O)N2Cc3cccn3Cc3ccccc32)cn1)c1cc(Cl)ccc1Cl [Example 14]
Oxytocin receptors; dose 10 μM
  inhibition at 10 µM: 96%
Oxytocin receptors
  IC50: 580 nM
[1]
  inhibition at 1 µM: 99%

## O=C(Nc1ccc(C(=O)N2Cc3cccn3Cc3ccccc32)cn1)c1c(F)cccc1Cl [Example 18]
Oxytocin receptors; dose 5 μM
  inhibition at 5 µM: 97%
Oxytocin receptors
  IC50: 310 nM
[1]
  inhibition at 1 µM: 94%

## O=C(Nc1ccc(C(=O)N2Cc3cccn3Cc3ccccc32)cn1)c1ccccc1[N+](=O)[O-] [Example 43]
Oxytocin receptors; dose 10 μM
  inhibition at 10 µM: 99%
Oxytocin receptors
  IC50: 920 nM

## Cc1ccc(F)cc1C(=O)Nc1ccc(C(=O)N2Cc3ccc(CN(C)C)n3Cc3ccccc32)cn1 [Example 120, N-[5-[[3-[(Dimethylamino)methyl]-[5H-pyrrolo[2,1-c][1,4]benzodiazepin-10(11H)]-yl]carbonyl]-2-pyridinyl]-5-fluoro-2-methylbenzamide]
Oxytocin receptors; dose 1 μM
  inhibition at 1 µM: 8%

## Cc1ccc(F)cc1C(=O)N(CCN(C)C)c1ccc(C(=O)N2Cc3cccn3Cc3ccccc32)cn1 [Example 130, N-[2-(Dimethylamino)ethyl]-N-[5-(5H-pyrrolo[2,1-c][1,4]benzodiazepin-10(11H)-ylcarbonyl)-2-pyridinyl]-5-fluoro-2-methylbenzamide]
Oxytocin receptors; dose 10 μM
  inhibition at 10 µM: 57%
[1]
  inhibition at 10 µM: 92%

## Cc1ccc(F)cc1C(=O)N(CCCN(C)C)c1ccc(C(=O)N2Cc3cccn3Cc3ccccc32)cn1 [Example 131, N-[3-(Dimethylamino)propyl]-N-[5-(5H-pyrrolo[2,1-c][1,4]benzodiazepin-10(11H)-ylcarbonyl)-2-pyridinyl]-5-fluoro-2-methylbenzamide]
Oxytocin receptors; dose 10 μM
  inhibition at 10 µM: 60%
[1]
  inhibition at 1 µM: 82%

## Cc1ccc(F)cc1C(=O)Nc1ccc(C(=O)N2Cc3cccn3-c3ncccc32)cn1 [Example 134, N-[5-(Pyrido[3,2-e]pyrrolo[1,2-a]pyrazin-5(6H)-ylcarbonyl)-2-pyridinyl]-5-fluoro-2-methylbenzamide]
Oxytocin receptors; dose 1 μM
  inhibition at 1 µM: 63%
[1]
  inhibition at 10 µM: 94%

## Cc1ccc(F)cc1C(=O)Nc1ccc(C(=O)N2Cc3cccn3-c3ccccc32)cn1 [Example 171, N-[5-(Pyrrolo[1,2-a]quinoxalin-5(4H)-ylcarbonyl)-2-pyridinyl]-5-fluoro-2-methylbenzamide]
Oxytocin receptors; dose 10 μM
  inhibition at 10 µM: 73%
Oxytocin receptors
  IC50: 1100 nM

## CC(C)CNc1ccc(C(=O)N2Cc3cccn3Cc3ccccc32)cn1 [Example 261, 10-[[6-[(2-Methylpropyl)amino]-3-pyridinyl]carbonyl]-10,11-dihydro-5H-pyrrolo[2,1-c][1,4]benzodiazepine]
Oxytocin receptors
  IC50: 150 nM
[1]
  inhibition at 1 µM: 32%
  inhibition at 10 µM: 55%

## CC(C)(C)CCNc1ccc(C(=O)N2Cc3cccn3Cc3ccccc32)cn1 [Example 262]
Oxytocin receptors; dose 10 μM
  inhibition at 10 µM: 76%
Oxytocin receptors
  IC50: 1600 nM
[1]
  inhibition at 1 µM: 50%

## Cc1ccccc1CNc1ccc(C(=O)N2Cc3cccn3Cc3ccccc32)cn1 [Example 274]
[1]
  inhibition at 10 µM: 97%

## O=C(c1ccc(SC2CCCCC2)nc1)N1Cc2cccn2Cc2ccccc21 [Example 288, 10,11-Dihydro-10-[[6-(cyclohexylthio)-3-pyridinyl]carbonyl]-5H-pyrrolo-[2,1-c][1,4]benzodiazepine]
Oxytocin receptors; dose 10 μM
  inhibition at 10 µM: 94%
Oxytocin receptors
  IC50: 1360 nM
[1]
  inhibition at 10 µM: 54%

## Cc1ccccc1Nc1ccc(C(=O)N2Cc3cccn3Cc3ccccc32)cn1 [Example 301, 10,11-Dihydro-10-[[6-[(2-methylphenyl)amino]-3-pyridinyl]carbonyl]-5H-Pyrrolo[2,1-c][1,4]benzodiazepine]
Oxytocin receptors; dose 10 μM
  inhibition at 10 µM: 89%
Oxytocin receptors
  IC50: 860 nM
[1]
  inhibition at 10 µM: 91%

## O=C(Nc1ccc(C(=O)N2Cc3cccn3Cc3ccccc32)c(Cl)c1)c1ccccc1-c1ccc(C(F)(F)F)cc1 [Example 326]
Oxytocin receptors; dose 1 μM
  inhibition at 1 µM: 0%
[1]
  inhibition at 10 µM: 91%

## Cc1ncccc1C(=O)Nc1ccc(C(=O)N2Cc3cccn3Cc3ccccc32)cn1 [Example 330, N-[5-(5H-Pyrrolo[2,1-c][1,4]benzodiazepin-10(11H)-ylcarbonyl]-2-pyridinyl]-2-methylpyridine-3-carboxamide Hydrochloride]
Oxytocin receptors; dose 10 μM, Hydrochloride
  Oxytocin Binding Assay % Inhibition: 93%
Oxytocin receptors; Hydrochloride
  IC50: 990 nM
[1]
  inhibition at 1 µM: 79%

## CN1CCN(c2ncccc2C(=O)Nc2ccc(C(=O)N3Cc4cccn4Cc4ccccc43)cc2)CC1 [Example 331, N-[4-(5H-Pyrrolo[2,1-c][1,4]benzodiazepin-10(11H)-ylcarbonyl)phenyl]-2-[N-methylpiperazinyl]-pyridine-3-carboxamide Hydrochloride]
Oxytocin receptors; dose 1 μM, Hydrochloride
  Oxytocin Binding Assay % Inhibition: 13%
[1]
  inhibition at 1 µM: 43%

## CNc1ncccc1C(=O)Nc1ccc(C(=O)N2Cc3cccn3Cc3ccccc32)cc1 [Example 334, N-[4-(5H-Pyrrolo[2,1-c][1,4]benzodiazepin-10(11H)-ylcarbonyl)phenyl]-2-(methylamino)pyridine-3-carboxamide]
Oxytocin receptors; dose 1 μM
  inhibition at 1 µM: 5%
[1]
  inhibition at 1 µM: 79%

## O=C(Nc1ccc(C(=O)N2Cc3cccn3Cc3ccccc32)cc1)c1cccnc1N1CCCCC1 [Example 336, N-[4-(5H-Pyrrolo[2,1-c][1,4]benzodiazepin-10(11H)-ylcarbonyl)phenyl]-2-(1-piperidinyl)-pyridine-3-carboxamide]
Oxytocin receptors; dose 10 μM
  inhibition at 10 µM: 94%
Oxytocin receptors
  IC50: 1630 nM
[1]
  inhibition at 1 µM: 69%

## O=C(Nc1ccc(C(=O)N2Cc3cccn3Cc3ccccc32)cc1)c1cccnc1N1CCOCC1 [Example 339, N-[4-(5H-Pyrrolo[2,1-c][1,4]benzodiazepin-10(11H)-ylcarbonyl)phenyl]-2-(morpholino)-pyridine-3-carboxamide]
Oxytocin receptors; dose 10 μM
  inhibition at 10 µM: 48%
Oxytocin receptors
  IC50: 8560 nM
[1]
  inhibition at 1 µM: 55%

## CCCCOc1ccc(C(=O)N2Cc3cc(CO)nn3Cc3ccccc32)cc1 [Example 344, 5,10-Dihydro-2-hydroxymethyl-5-(4-(4-butyloxy)benzoyl)-4H-pyrazolo[5,1-c][1,4]benzodiazepine]
Oxytocin receptors; dose 1 μM
  inhibition at 1 µM: 58%
Oxytocin receptors
  IC50: 3800 nM

## O=C(Nc1ccc(C(=O)N2Cc3cccn3Cc3ccccc32)cc1)c1cccnc1Oc1ccc(Cl)cc1 [Example 346, N-[4-(5H-Pyrrolo[2,1-c][1,4]benzodiazepin-10(11H)-ylcarbonyl)phenyl]-2-(4-chlorophenyloxy)pyridine-3-carboxamide]
Oxytocin receptors; dose 1 μM
  inhibition at 1 µM: 0%
[1]
  inhibition at 10 µM: 76%

## COc1ccc(CNc2ccc(C(=O)N3Cc4cccn4Cc4ccccc43)cn2)c(OC)c1 [Example 351]
Oxytocin receptors; dose 1 μM
  inhibition at 1 µM: 0%
[1]
  inhibition at 1 µM: 56%

## Cc1occc1C(=O)Nc1ccc(C(=O)N2Cc3cccn3Cc3ccccc32)cn1 [Example 353, N-[5-(5H-Pyrrolo[2,1-c][1,4]benzodiazepine-10(11H)-ylcarbonyl)-2-pyridinyl]-2-methylfurane-3-carboxamide]
Oxytocin receptors; dose 10 μM
  inhibition at 10 µM: 83%
Oxytocin receptors
  IC50: 2050 nM
[1]
  inhibition at 1 µM: 86%

## Nc1ccccc1C(=O)Nc1ccc(C(=O)N2Cc3cccn3Cc3ccccc32)cn1 [Example 354, N-[5-(5H-Pyrrolo[2,1-c][1,4]benzodiazepin-10(11H)-ylcarbonyl)-2-pyridinyl]-2-aminobenzamide]
Oxytocin receptors; dose 1 μM
  inhibition at 1 µM: 7%
[1]
  inhibition at 1 µM: 86%
